According to PubChem BioAssay (NCI):
“And” between values parts separate entries of the source, which are not always exact repeats. Equal values may be shown once.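 96-well plates; 48 h exposure; 5 concentrations. Endpoints by linear interpolation between flanking doses. Not reached: highest tested concentration assigned. GI50 marks 50% less growth. TGI is the concentration that stops growth completely.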

Columns and labels:
Assay in all cases: growth of human tumour cells (NCI), 48 h
[1] = test system: OVCAR-3 ovarian
[2] = test system: UO-31 renal
[3] = test system: MDA-MB-231 breast
[4] = test system: ACHN renal
[5] = test system: NCI-H522 lung
[6] = test system: HCT-15 colon
[7] = test system: KM12 colon
[8] = test system: UACC-62 melanoma
[9] = test system: M14 melanoma
[10] = test system: LOX IMVI melanoma
[11] = test system: NCI-H23 lung
[12] = test system: HT29 colon
[13] = test system: SN12C renal
[14] = test system: SNB-19 CNS
[15] = test system: RXF 393 renal
[16] = test system: SW-620 colon
[17] = test system: K-562 leukemia
[18] = test system: OVCAR-8 ovarian
[19] = test system: UACC-257 melanoma
[20] = test system: PC-3 prostate
[21] = test system: NCI-H460 lung
[22] = test system: U251 CNS
[23] = test system: 786-0 renal
[24] = test system: EKVX NSCLC
[25] = test system: HOP-92 NSCLC
[26] = test system: MCF7 breast
[27] = test system: SF-268 CNS
[28] = test system: RPMI-8226 leukemia
[29] = test system: MOLT-4 leukemia
[30] = test system: HS 578T breast
[31] = test system: SR leukemia
[32] = test system: SF-295 CNS
[33] = test system: BT-549 breast
[34] = test system: SK-MEL-2 melanoma
[35] = test system: IGROV1 ovarian
[36] = test system: DU-145 prostate
[37] = test system: NCI/ADR-RES ovarian
[38] = test system: SF-539 CNS
[39] = test system: COLO 205 colon
[40] = test system: TK-10 renal
[41] = test system: CAKI-1 renal
[42] = test system: HL-60(TB) leukemia
[43] = test system: HCC-2998 colon
[44] = test system: A549 NSCLC
[45] = test system: MALME-3M melanoma
[46] = test system: HOP-62 NSCLC
[47] = test system: SK-MEL-5 melanoma
[48] = test system: HCT-116 colon
[49] = test system: OVCAR-5 ovarian
[50] = test system: CCRF-CEM leukemia
[51] = test system: A498 renal
[52] = test system: SK-OV-3 ovarian
[53] = test system: SNB-75 CNS
[54] = test system: MDA-MB-435
[55] = test system: T-47D breast
[56] = test system: OVCAR-4 ovarian
[57] = test system: SK-MEL-28 melanoma

COc1ccc2c(c1)[nH]c(=O)c1c3ccccc3cn21
GI50 [1]: 0.0223 µM | TGI [1]: 0.0652 µM | GI50 [2]: 0.0795 µM | TGI [2]: 2.26 µM and 5.82 µM | GI50 [3]: 0.0565 µM and 0.148 µM | TGI [3]: 0.74 µM and 1.08 µM | GI50 [4]: 0.125 µM | TGI [4]: 1.83 µM and 6.41 µM | GI50 [5]: 0.0597 µM | TGI [5]: 2.28 µM and 1.48 µM | GI50 [6]: 0.0262 µM and < 0.0177 µM | GI50 [7]: 0.0331 µM and < 0.0486 µM | GI50 [8]: 0.0738 µM | TGI [8]: 1.89 µM and 13.3 µM | TGI [9]: 12.9 µM | GI50 [10]: 0.0712 µM | TGI [10]: 1.77 µM and 2.09 µM | TGI [11]: 3.39 µM and 14.6 µM | GI50 [12]: 0.034 µM | GI50 [13]: 0.0571 µM and 0.28 µM | TGI [13]: 2.08 µM and 8.97 µM | GI50 [14]: 0.0387 µM | TGI [14]: 4.05 µM and 26.4 µM | GI50 [15]: 0.0204 µM | TGI [15]: 3.19 µM and 2.47 µM | GI50 [16]: 0.0264 µM | TGI [16]: 1.42 µM and 1.51 µM | GI50 [17]: 0.00892 µM | GI50 [18]: 0.0581 µM | TGI [18]: 2.36 µM and 5.18 µM | GI50 [19]: 5.13 µM and 12.7 µM | TGI [19]: 30.8 µM | GI50 [20]: 0.0368 µM | TGI [20]: 2.55 µM and 3.04 µM | GI50 [21]: 0.0348 µM | TGI [21]: 1.12 µM | GI50 [22]: 0.0436 µM | TGI [22]: 1.52 µM and 4.44 µM | GI50 [23]: 0.0413 µM | TGI [23]: 1.84 µM and 2.16 µM | GI50 [24]: 0.0907 µM and < 0.0478 µM | TGI [24]: 19.1 µM | GI50 [25]: 1.01 µM and 2.18 µM | TGI [25]: 15.9 µM | GI50 [26]: 0.0282 µM and < 0.0378 µM | TGI [26]: 1.46 µM and 12.7 µM | GI50 [27]: 0.0738 µM | GI50 [28]: 0.0366 µM | TGI [28]: 1.4 µM and 0.4 µM | GI50 [29]: 0.0778 µM | TGI [29]: 2.14 µM and 9.95 µM | GI50 [30]: 0.0508 µM | TGI [30]: 2.71 µM and 14.1 µM | TGI [31]: 2.04 µM | GI50 [32]: 0.0268 µM | TGI [32]: 1.05 µM | GI50 [33]: 0.0549 µM | TGI [33]: 2.03 µM and 3.83 µM | TGI [34]: 2.49 µM and 18.7 µM | GI50 [35]: 0.0734 µM and < 0.0114 µM | TGI [35]: 2.27 µM and 16 µM | TGI [36]: 11.9 µM | GI50 [37]: 0.0213 µM | TGI [37]: 0.0575 µM | GI50 [38]: 0.0228 µM | TGI [38]: 0.0704 µM and 0.207 µM | GI50 [39]: 0.0412 µM | TGI [39]: 1.16 µM | GI50 [40]: 0.515 µM and 0.265 µM | TGI [40]: 2.43 µM and 2.21 µM | GI50 [41]: 0.0355 µM | TGI [41]: 1.97 µM and 5.38 µM | GI50 [42]: 0.0114 µM | TGI [42]: 0.0607 µM | GI50 [43]: 0.0183 µM | TGI [43]: 0.0492 µM | GI50 [44]: 0.067 µM | TGI [44]: 1.65 µM and 1.69 µM | TGI [45]: 14.9 µM | GI50 [46]: 0.0312 µM | TGI [46]: 1.23 µM | GI50 [47]: 0.0282 µM | TGI [47]: 1.17 µM and 0.728 µM | GI50 [48]: 0.0395 µM | TGI [48]: 1.32 µM and 1.12 µM | GI50 [49]: 0.101 µM | TGI [49]: 7.86 µM and 5.56 µM | GI50 [50]: 0.03 µM | GI50 [51]: 0.0223 µM and < 0.0375 µM

N#C[Se]CCN1C(=O)C2C(C1=O)[C@H]1C=C[C@@H]2S1 (stereo partly drawn)
GI50 [1]: 1.94 µM | TGI [1]: 3.85 µM | GI50 [2]: 1.36 µM | TGI [2]: 2.9 µM | GI50 [3]: 2.24 µM | TGI [3]: 5.2 µM | GI50 [52]: 2.67 µM | TGI [52]: 5.59 µM | GI50 [4]: 2.07 µM | TGI [4]: 3.99 µM | GI50 [6]: 2.2 µM | TGI [6]: 5.77 µM | GI50 [7]: 2.32 µM | TGI [7]: 5.38 µM | GI50 [8]: 1.98 µM | TGI [8]: 4.27 µM | GI50 [9]: 1.54 µM | TGI [9]: 3.62 µM | GI50 [53]: 1.39 µM | TGI [53]: 3.85 µM | GI50 [10]: 1.67 µM | TGI [10]: 4.12 µM | GI50 [11]: 2.46 µM | TGI [11]: 6.51 µM | GI50 [12]: 2.65 µM | TGI [12]: 8.98 µM | GI50 [13]: 1.92 µM | TGI [13]: 4.07 µM | GI50 [54]: 1.7 µM | TGI [54]: 3.26 µM | GI50 [15]: 1.63 µM | TGI [15]: 3.27 µM | GI50 [16]: 2.87 µM | TGI [16]: 8.19 µM | GI50 [17]: 3.24 µM | TGI [17]: 12 µM | GI50 [18]: 2.11 µM | TGI [18]: 5.26 µM | GI50 [19]: 1.97 µM | TGI [19]: 5.4 µM | GI50 [55]: 2.52 µM | TGI [55]: 7.78 µM | GI50 [20]: 2.11 µM | TGI [20]: 5.9 µM | GI50 [21]: 1.93 µM | TGI [21]: 6.77 µM | GI50 [22]: 1.8 µM | TGI [22]: 4.13 µM | GI50 [23]: 1.97 µM | TGI [23]: 3.68 µM | GI50 [24]: 1.83 µM | TGI [24]: 4.28 µM | GI50 [56]: 1.85 µM | TGI [56]: 6.1 µM | GI50 [25]: 1.88 µM | TGI [25]: 3.94 µM | GI50 [26]: 2.37 µM | TGI [26]: 9.19 µM | GI50 [27]: 1.95 µM | TGI [27]: 3.86 µM | GI50 [28]: 2.04 µM | TGI [28]: 4.84 µM | GI50 [29]: 1.31 µM | TGI [29]: 8.06 µM | GI50 [30]: 1.75 µM | TGI [30]: 6.21 µM | GI50 [31]: 1.98 µM | TGI [31]: 7.7 µM | GI50 [32]: 1.83 µM | TGI [32]: 3.35 µM | GI50 [33]: 1.74 µM | TGI [33]: 3.38 µM | GI50 [34]: 2.44 µM | TGI [34]: 6.43 µM | GI50 [35]: 1.59 µM | TGI [35]: 3.48 µM | GI50 [37]: 2.4 µM | TGI [37]: 7.18 µM | GI50 [38]: 1.69 µM | TGI [38]: 3.18 µM | GI50 [39]: 2.45 µM | TGI [39]: 6.42 µM | GI50 [40]: 2.16 µM | TGI [40]: 4.44 µM | GI50 [41]: 1.9 µM | TGI [41]: 3.39 µM | GI50 [43]: 2.18 µM | TGI [43]: 5.44 µM | GI50 [44]: 1.93 µM | TGI [44]: 4.56 µM | GI50 [45]: 1.53 µM | TGI [45]: 3.65 µM | GI50 [57]: 1.92 µM | TGI [57]: 5.02 µM | GI50 [47]: 2.02 µM | TGI [47]: 4.09 µM | GI50 [48]: 1.85 µM | TGI [48]: 4.35 µM | GI50 [49]: 2.56 µM | TGI [49]: 6.4 µM | GI50 [50]: 1.84 µM | TGI [50]: 6.14 µM | GI50 [51]: 1.51 µM | TGI [51]: 3.33 µM
